What was measured:
Experiment in all cases: relative viability (nuclei count vs DMSO), 5 days (fraction); higher = more cells survive
EMC-BAC-2 = tested on: EMC-BAC-2
Outline: (§1)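 Relative viability was taken as the ratio of nuclei in treated wells to nuclei in vehicle wells. Lung cancer cell lines in 1536-well plates received compounds by pin tool one day after seeding, either one drug alone or a fixed anchor-drug dose plus five library-drug doses (not always all listed) in √10 steps. Nuclei were counted on 4× images after 5 days of treatment, and values are medians of duplicate plates.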

NCI-H2085 = tested on: NCI-H2085
Outline: as §1

NCI-H2023 = tested on: NCI-H2023
Outline: as §1

UMC-11 = tested on: UMC-11
Outline: as §1

CAL-12T = tested on: CAL-12T
Outline: as §1

NCI-H1993 = tested on: NCI-H1993
Outline: as §1

HCC-15 = tested on: HCC-15
Outline: as §1

NCI-H3122 = tested on: NCI-H3122
Outline: as §1

EPLC-272H = tested on: EPLC-272H
Outline: as §1

NCI-H2126 = tested on: NCI-H2126
Outline: as §1

COR-L 105 = tested on: COR-L 105
Outline: as §1

NCI-H358 = tested on: NCI-H358
Outline: as §1

HOP-62 = tested on: HOP-62
Outline: as §1

NCI-H1666 = tested on: NCI-H1666
Outline: as §1

NCI-H1975 = tested on: NCI-H1975
Outline: as §1

LXF-289 = tested on: LXF-289
Outline: as §1

HCC-78 = tested on: HCC-78
Outline: as §1

NCI-H441 = tested on: NCI-H441
Outline: as §1

NCI-H322M = tested on: NCI-H322M
Outline: as §1

NCI-H1915 = tested on: NCI-H1915
Outline: as §1

ChaGo-K-1 = tested on: ChaGo-K-1
Outline: as §1

NCI-H1755 = tested on: NCI-H1755
Outline: as §1

NC(=O)Nc1cc(-c2cccc(F)c2)sc1C(=O)N[C@H]1CCCNC1 [AZD7762] + Nc1nc2[nH]cc(CCc3ccc(C(=O)N[C@@H](CCC(=O)O)C(=O)O)cc3)c2c(=O)[nH]1 [Pemetrexed] (partner 0.2 µM)
relative viability (EMC-BAC-2; first compound 0.01 µM): 0.457
relative viability (EMC-BAC-2; first compound 0.03162 µM): 0.397
relative viability (EMC-BAC-2; first compound 0.1 µM): 0.405
relative viability (EMC-BAC-2; first compound 0.3162 µM): 0.35
relative viability (EMC-BAC-2; first compound 1 µM): 0.387
relative viability (NCI-H2085; first compound 0.01 µM): 0.932
relative viability (NCI-H2085; first compound 0.03162 µM): 0.918
relative viability (NCI-H2085; first compound 0.1 µM): 1
relative viability (NCI-H2085; first compound 0.3162 µM): 0.795
relative viability (NCI-H2085; first compound 1 µM): 0.673
relative viability (NCI-H2023; first compound 0.01 µM): 0.211
relative viability (NCI-H2023; first compound 0.03162 µM): 0.156
relative viability (NCI-H2023; first compound 0.1 µM): 0.112
relative viability (NCI-H2023; first compound 0.3162 µM): 0.124
relative viability (NCI-H2023; first compound 1 µM): 0.0879
relative viability (UMC-11; first compound 0.01 µM): 0.833
relative viability (UMC-11; first compound 0.03162 µM): 0.797
relative viability (UMC-11; first compound 0.1 µM): 0.782
relative viability (UMC-11; first compound 0.3162 µM): 0.495
relative viability (UMC-11; first compound 1 µM): 0.369
relative viability (CAL-12T; first compound 0.01 µM): 1.16
relative viability (CAL-12T; first compound 0.03162 µM): 0.981
relative viability (CAL-12T; first compound 0.1 µM): 1.09
relative viability (CAL-12T; first compound 0.3162 µM): 0.612
relative viability (CAL-12T; first compound 1 µM): 0.226
relative viability (NCI-H1993; first compound 0.01 µM): 0.559
relative viability (NCI-H1993; first compound 0.03162 µM): 0.487
relative viability (NCI-H1993; first compound 0.1 µM): 0.602
relative viability (NCI-H1993; first compound 0.3162 µM): 0.586
relative viability (NCI-H1993; first compound 1 µM): 0.578
relative viability (HCC-15; first compound 0.01 µM): 0.213
relative viability (HCC-15; first compound 0.03162 µM): 0.234
relative viability (HCC-15; first compound 0.1 µM): 0.232
relative viability (HCC-15; first compound 0.3162 µM): 0.209
relative viability (HCC-15; first compound 1 µM): 0.187
relative viability (NCI-H3122; first compound 0.01 µM): 0.19
relative viability (NCI-H3122; first compound 0.03162 µM): 0.188
relative viability (NCI-H3122; first compound 0.1 µM): 0.167
relative viability (NCI-H3122; first compound 0.3162 µM): 0.16
relative viability (NCI-H3122; first compound 1 µM): 0.139
relative viability (EPLC-272H; first compound 0.01 µM): 0.321
relative viability (EPLC-272H; first compound 0.03162 µM): 0.214
relative viability (EPLC-272H; first compound 0.1 µM): 0.174
relative viability (EPLC-272H; first compound 0.3162 µM): 0.12
relative viability (EPLC-272H; first compound 1 µM): 0.0715
relative viability (NCI-H2126; first compound 0.01 µM): 0.659
relative viability (NCI-H2126; first compound 0.03162 µM): 0.646
relative viability (NCI-H2126; first compound 0.1 µM): 0.553
relative viability (NCI-H2126; first compound 0.3162 µM): 0.576
relative viability (NCI-H2126; first compound 1 µM): 0.365
relative viability (COR-L 105; first compound 0.01 µM): 0.961
relative viability (COR-L 105; first compound 0.03162 µM): 1.11
relative viability (COR-L 105; first compound 0.1 µM): 0.913
relative viability (COR-L 105; first compound 0.3162 µM): 0.87
relative viability (COR-L 105; first compound 1 µM): 0.579
relative viability (NCI-H358; first compound 0.01 µM): 0.23
relative viability (NCI-H358; first compound 0.03162 µM): 0.188
relative viability (NCI-H358; first compound 0.1 µM): 0.19
relative viability (NCI-H358; first compound 0.3162 µM): 0.149
relative viability (NCI-H358; first compound 1 µM): 0.128
relative viability (HOP-62; first compound 0.01 µM): 0.359
relative viability (HOP-62; first compound 0.03162 µM): 0.318
relative viability (HOP-62; first compound 0.1 µM): 0.264
relative viability (HOP-62; first compound 0.3162 µM): 0.248
relative viability (HOP-62; first compound 1 µM): 0.208
relative viability (NCI-H1666; first compound 0.01 µM): 0.851
relative viability (NCI-H1666; first compound 0.03162 µM): 0.838
relative viability (NCI-H1666; first compound 0.1 µM): 0.739
relative viability (NCI-H1666; first compound 0.3162 µM): 0.594
relative viability (NCI-H1666; first compound 1 µM): 0.719
relative viability (NCI-H1975; first compound 0.01 µM): 0.309
relative viability (NCI-H1975; first compound 0.03162 µM): 0.27
relative viability (NCI-H1975; first compound 0.1 µM): 0.254
relative viability (NCI-H1975; first compound 0.3162 µM): 0.221
relative viability (NCI-H1975; first compound 1 µM): 0.198
relative viability (LXF-289; first compound 0.01 µM): 0.817
relative viability (LXF-289; first compound 0.03162 µM): 0.864
relative viability (LXF-289; first compound 0.1 µM): 0.949
relative viability (LXF-289; first compound 0.3162 µM): 0.803
relative viability (LXF-289; first compound 1 µM): 0.626
relative viability (HCC-78; first compound 0.01 µM): 0.927
relative viability (HCC-78; first compound 0.03162 µM): 0.903
relative viability (HCC-78; first compound 0.1 µM): 0.895
relative viability (HCC-78; first compound 0.3162 µM): 0.895
relative viability (HCC-78; first compound 1 µM): 0.889
relative viability (NCI-H441; first compound 0.01 µM): 0.267
relative viability (NCI-H441; first compound 0.03162 µM): 0.288
relative viability (NCI-H441; first compound 0.1 µM): 0.294
relative viability (NCI-H441; first compound 0.3162 µM): 0.275
relative viability (NCI-H441; first compound 1 µM): 0.271
relative viability (NCI-H322M; first compound 0.01 µM): 0.595
relative viability (NCI-H322M; first compound 0.03162 µM): 0.617
relative viability (NCI-H322M; first compound 0.1 µM): 0.571
relative viability (NCI-H322M; first compound 0.3162 µM): 0.542
relative viability (NCI-H322M; first compound 1 µM): 0.379
relative viability (NCI-H1915; first compound 0.01 µM): 0.434
relative viability (NCI-H1915; first compound 0.03162 µM): 0.412
relative viability (NCI-H1915; first compound 0.1 µM): 0.346
relative viability (NCI-H1915; first compound 0.3162 µM): 0.264
relative viability (NCI-H1915; first compound 1 µM): 0.217
relative viability (ChaGo-K-1; first compound 0.01 µM): 0.26
relative viability (ChaGo-K-1; first compound 0.03162 µM): 0.267
relative viability (ChaGo-K-1; first compound 0.1 µM): 0.259
relative viability (ChaGo-K-1; first compound 0.3162 µM): 0.243
relative viability (ChaGo-K-1; first compound 1 µM): 0.256
relative viability (NCI-H1755; first compound 0.01 µM): 0.48
relative viability (NCI-H1755; first compound 0.03162 µM): 0.441
relative viability (NCI-H1755; first compound 0.1 µM): 0.401
relative viability (NCI-H1755; first compound 0.3162 µM): 0.36
relative viability (NCI-H1755; first compound 1 µM): 0.277

— the supplement of paper PMC10307832
